In patent US20020182590A1, “Determining protein function in cell culture using RNA interference” (Vanderbilt University, priority 2001, published 2002):

Test system: outwardly rectifying whole-cell currents of C. elegans body wall muscles
Test: Whole-cell patch clamp recordings from cultured myo-3::GFP-expressing body wall muscle cells
Format: cell-based
Settings: 20 mM TEA, 3 mM 4-AP
Method: FIGS. 3A-3C—Whole-cell recordings from C. elegans body wall muscles. […] Holding potential =−80 mV. […] Values are means±S.E. (n=8). […] Steady-state currents in the presence and absence of the drugs were measured at +80 mV. Drug effects were reversible. Values are means±S.E. (n=3-5).
Electrophysiology. Cells are patch clamped using either the conventional whole-cell mode or perforated patch method. Initially, whole-cell measurements are performed using “physiological” pipette and bath solutions. The composition of C. elegans extracellular and intracellular fluids is currently unknown. Ascaris bath Ringer's (Richmond & Jorgenson, 1999) and conventional high K^+, low Na^+ and Cl^− pipette solutions are used. Standard voltage clamp protocols are used to assess the voltage-dependence of channels responsible for whole-cell currents.
For these experiments, the inventors mimicked the experimental protocol and bath and pipette solutions used recently for in vivo patch clamp studies of C. elegans body wall muscles (Richmond et al., 1999). When cultured body muscles were patch clamped with a pipette solution containing 120 mM KCl (Richmond et al., 1999), slowly inactivating, strongly outwardly rectifying currents were observed (FIG. 3). These currents were inhibited 40% by 20 mM TEA and 85% by 20 mM TEA plus 3 mM 4-aminopyridine (4-AP). […]

## CC[N+](CC)(CC)CC [TEA]
  reversibility of drug effects on currents: reversible
Bath addition, steady-state currents at +80 mV, pipette 120 mM KCl
  inhibition of whole-cell currents: 40%
